Assay results: PMC9117551 (iScience, 2022)
Where two headings read alike, the source gives them in different places.

Key:
Assay in all cases: SPR
Assay type in all cases: binding
[1] = biological target: T1, serine hydroxymethyltransferase 2 (SHMT2) (Homo sapiens, UniProt P34897)
T1 sequence (P34897 22-504 limits assumed): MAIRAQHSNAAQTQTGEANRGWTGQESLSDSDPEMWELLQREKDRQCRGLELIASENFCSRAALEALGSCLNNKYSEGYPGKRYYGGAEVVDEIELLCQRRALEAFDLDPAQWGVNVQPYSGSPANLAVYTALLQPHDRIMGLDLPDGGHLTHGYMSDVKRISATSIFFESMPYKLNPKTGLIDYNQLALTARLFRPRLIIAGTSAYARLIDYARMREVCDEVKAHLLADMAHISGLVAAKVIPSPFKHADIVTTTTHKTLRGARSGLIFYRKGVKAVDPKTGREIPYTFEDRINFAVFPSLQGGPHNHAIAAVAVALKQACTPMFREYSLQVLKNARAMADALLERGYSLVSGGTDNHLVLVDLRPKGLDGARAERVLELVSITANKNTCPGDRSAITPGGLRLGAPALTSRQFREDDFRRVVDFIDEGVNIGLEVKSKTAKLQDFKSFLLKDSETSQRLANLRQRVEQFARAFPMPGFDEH

[2] = biological target: T1, serine hydroxymethyltransferase 2 (SHMT2); remark: listed apart in the source
[3] = biological target: T2, SHMT1 (Homo sapiens, UniProt P34896)
T2 sequence (P34896 2-483): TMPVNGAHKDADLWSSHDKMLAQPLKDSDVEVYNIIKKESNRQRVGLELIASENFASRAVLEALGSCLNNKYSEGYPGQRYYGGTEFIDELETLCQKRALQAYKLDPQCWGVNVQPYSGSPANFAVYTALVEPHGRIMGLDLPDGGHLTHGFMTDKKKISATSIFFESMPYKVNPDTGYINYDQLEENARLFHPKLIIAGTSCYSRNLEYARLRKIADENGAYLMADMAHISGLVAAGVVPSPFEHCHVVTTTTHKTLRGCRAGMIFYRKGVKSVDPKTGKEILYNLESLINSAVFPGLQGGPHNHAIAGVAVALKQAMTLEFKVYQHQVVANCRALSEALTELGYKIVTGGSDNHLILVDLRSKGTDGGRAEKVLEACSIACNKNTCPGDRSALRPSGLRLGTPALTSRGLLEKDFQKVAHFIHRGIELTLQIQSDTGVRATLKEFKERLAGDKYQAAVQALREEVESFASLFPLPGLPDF

SMILES | Kd [1] | Kd [2] | Kd [3]
Nc1nc2c(c(=O)[nH]1)NC(CNc1ccc(C(=O)N[C@@H](CCC(=O)O)C(=O)O)cc1)CN2 (stereo partly shown) [THF, Tetrahydrofolic acid] | 3.51 µM |  | 
CC1(C)[C@@H](OC(=O)CCC(=O)O)CC[C@]2(C)[C@H]3C(=O)C=C4[C@@H]5C[C@@](C)(C(=O)O)CC[C@]5(C)CC[C@@]4(C)[C@]3(C)CC[C@@H]12 [CBX, Carbenoxolone] | 15.1 µM |  | 
CC1(C)[C@@H](O)CC[C@]2(C)[C@H]3C(=O)C=C4[C@@H]5C[C@@](C)(C(=O)O)CC[C@]5(C)CC[C@@]4(C)[C@]3(C)CC[C@@H]12 [GA, Glycyrrhetinic acid] |  | 2.9 µM | 2.37 µM
